Where “and” joins values, the source holds several entries; their conditions need not be identical. Equal entries are not always repeated.
Key:
[1] = biological target: T1, histamine on isolated guinea pig ileum (Cavia porcellus, UniProt P31389); assay: Antihistamine activity (in vitro): antagonism of the spasmogenic effects of histamine on isolated guinea pig ileum; details: Tyrode solution, 30° C., antagonist 5-640 ng/ml, several assays per compound
T1 construct: strips of terminal guinea pig ileum suspended in a 4 ml capacity organ bath; from tissue; host or cells: terminal ileum strips of guinea pig (Dunkin Hartley male white guinea pigs)
T1 sequence (P31389 whole entry): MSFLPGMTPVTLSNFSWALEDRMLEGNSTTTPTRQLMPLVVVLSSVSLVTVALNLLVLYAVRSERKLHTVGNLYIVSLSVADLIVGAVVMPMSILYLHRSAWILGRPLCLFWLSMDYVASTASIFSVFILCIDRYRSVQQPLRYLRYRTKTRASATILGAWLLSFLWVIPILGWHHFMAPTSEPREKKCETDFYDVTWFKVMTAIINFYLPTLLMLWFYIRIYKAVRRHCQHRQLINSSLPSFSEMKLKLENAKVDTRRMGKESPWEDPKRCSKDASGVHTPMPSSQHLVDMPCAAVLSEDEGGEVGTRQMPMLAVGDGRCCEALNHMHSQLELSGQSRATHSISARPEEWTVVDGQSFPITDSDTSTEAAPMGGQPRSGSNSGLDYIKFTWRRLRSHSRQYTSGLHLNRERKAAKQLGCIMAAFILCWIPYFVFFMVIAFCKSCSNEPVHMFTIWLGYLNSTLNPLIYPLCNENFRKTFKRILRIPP
Protocol: (b) antagonise the spasmogenic effects of histamine on isolated guinea pig ileum.
(§1) Charles River Sprague Dawley male rats of 225-275 g and Dunkin Hartley male white guinea pigs of 250-300 g were used.
The anti-histamine activity of these compounds were measured in terms of pA2 values on guinea pig ileum using the method described by Arunlakshana, O. and Schild, H. O. (Brit J Pharm, 14, 1959, 48).
The pA2 is defined as the negative logarithm of the molar concentration of antagonist that will reduce the response of a double dose of agonist to that of a single dose.
Assays were carried out using strips of terminal guinea pig ileum suspended in a 4 ml capacity organ bath. The ileum was immersed in aerated Tyrode solution at a temperature of 30° C. and a tension of 1 gm was applied to the gut. Longitudinal contractions of the gut were recorded isotonically using a 2LD01 Devices transducer, a R2502-2 Devices optical wedge and a RE511.20 Smiths servoscribe flat bed recorder.
The tissue was constantly immersed in Tyrode solution washing was by fluid displacement from below. […]
The height of the response was measured in mms and a mean value calculated. […] The dose of histamine which produced a response of 100 mms were obtained for each curve from the graph and the ratio designated CR was calculated from [formula] […]

[2] = tested on: rat passive peritoneal anaphylaxis; assay: Rat passive peritoneal anaphylaxis (PPA): histamine, SRS-A and dye in peritoneal fluid; format: in vivo; details: mean ± SEM, 5-7 rats per group
Source text: (a) inhibit rat passive peritoneal anaphylaxis; and
(a) Rat passive peritoneal anaphylaxis (PPA)
The method has been described previously (Ross, Janet W., Smith, H. and Spicer, Barbara A. Increased vascular permeability during passive peritoneal anaphylaxis in the rat, Int Arch Allergy appl Immun, 51, 226, 1976).
as §1
This was raised in rats in one of two ways.
Charles River Sprague Dawley male rats of 225 to 275 g were given subcutaneous injections of 10 μg of ovalbumin (chicken egg albumin; crystallised and lyophilised, grade 3, Sigma London), in 0.5 ml of a suspension prepared by adding 1 ml of a 0.1 mg/ml solution of ovalbumin, in isotonic saline, to 4 ml of a 1% suspension of aluminium hydroxide in saline (Alhydrogel; Miles Laboratories, England; diluted 1:1 with isotonic saline). The rats were bled on day 10.
Charles River Sprague Dawley male rats of 225 to 300 g were given intraperitoneal injections of 0.5 ml of Bordetella pertussis vaccine (4×10^10 organisms/ml Burroughs Wellcome, London) and subcutaneous injections of 0.5 ml of an emulsion of 100 mg of ovalbumin of 2 ml of isotonic saline and 3 ml of Freund's incomplete adjuvant (Pifco Laboratories, Michigan USA). The rats were bled on day 18.
The rats were bled by cardiac puncture, the blood was pooled, from groups of rats treated similarly, and the serum separated, stored at -20° and thawed only once before use. The serum sensitised rats for passive cutaneous anaphylaxis (carried out as described: Spicer, Barbara A; Ross, Janet W and Smith, H; Inhibition of immediate hypersensitivity reactions in the rat by disodium cromoglycate and a nitroindanedione, Clin exp, Immunol, 21, 419, 1975) to a dilution of 1:32 to 1:64 persisting for at least 72 hours after sensitisation.
Rats were given intraperitoneal injections of 2 ml of a 1:5 dilution of the rat anti-serum in isotonic saline. Two hours later 0.3 ml of a 5% solution of Pontamine Sky Blue (Raymond A. Lamb, London) in isotonic saline was injected intravenously, followed by an intraperitoneal injection of the test compound in 1 ml of saline; (control rats received 1 ml of saline); followed 30 seconds later by an intraperitoneal injection of 5 ml of a Tyrode solution containing 50 μg/ml heparin and 0.4 mg/ml of ovalbumin. The concentrations of the compounds were quoted as those in the 6 ml of fluid injected intraperitoneally. Exactly 5 minutes after challenge the rats were stunned and bled and their peritoneal fluids were collected by opening their peritoneal cavities over funnels into polycarbonate tubes in ice. The supernatants were separated from the cellular residue by centrifuging at 150 g for 5 minutes and any samples obviously contaminated with blood were discarded for estimattion of dye, histamine and SRS-A. Groups of at least 5 rats were used for each dose of compound and the treatments were randomised.
Collected peritoneal fluids were immediately cooled to 0° C. and centrifuged and the supernatant fluids assayed for dye within 2 hours. 0.5 ml samples of the supernatants were added to 1 ml of 12% trichloracetic acid and stored at -20° C. and used to assay for histamine. The remainders of the supernatant fluids were placed in a boiling water bath for 5 minutes and stored frozen at -20° C. until assayed for SRS-A.
The optical densities (OD) at 625 nm of the supernatants were determined. Samples were taken from supernatants with an OD greater than 2 and diluted in Tyrode's solution before reading.
Histamine was assayed using an automated spectrofluorimetric system (Technicon Autoanalyser) by a method similar to that of Evans, D.P., Lewis, J. A. and Thomson, D. S.; (An automated fluorimetric assay for the rapid determination of histamine in biological fluids. Life Sci 12,327, 1973). […]

pA2 values obtained in different assays [1] | Kb ([1]; read-out: pA2 values obtained in different assays (converted)) | SMILES | Dye concentration in peritoneal fluid as % of mean of controls ([2]; 10^-5 M injected ip) | Histamine concentration in peritoneal fluid as % of mean of controls ([2]; 10^-5 M injected ip) | Dye concentration in peritoneal fluid as % of mean of controls ([2]; 10^-6 M injected ip) | Histamine concentration in peritoneal fluid as % of mean of controls ([2]; 10^-6 M injected ip) | Dye concentration in peritoneal fluid as % of mean of controls ([2]; 10^-7 M injected ip) | Histamine concentration in peritoneal fluid as % of mean of controls ([2]; 10^-7 M injected ip) | Dye concentration in peritoneal fluid as % of mean of controls ([2]; 2 × 10^-5 M injected ip) | Histamine concentration in peritoneal fluid as % of mean of controls ([2]; 2 × 10^-5 M injected ip) | SRS-A concentration in peritoneal fluid as % of mean of controls ([2]; 2 × 10^-5 M injected ip) | Dye concentration in peritoneal fluid as % of mean of controls ([2]; 2 × 10^-6 M injected ip) | Histamine concentration in peritoneal fluid as % of mean of controls ([2]; 2 × 10^-6 M injected ip) | SRS-A concentration in peritoneal fluid as % of mean of controls ([2]; 2 × 10^-6 M injected ip) | SRS-A concentration in peritoneal fluid as % of mean of controls ([2]; 10^-5 M injected ip) | SRS-A concentration in peritoneal fluid as % of mean of controls ([2]; 10^-6 M injected ip) | SRS-A concentration in peritoneal fluid as % of mean of controls ([2]; 10^-7 M injected ip)
9.1 and 9.0 |  | O=C1c2cc(OCCCN3CCN(Cc4ccccc4Cl)CC3)ccc2C(=O)c2[nH]nnc21 [Example 3, 6-{3-[4-(2-Chlorobenzyl)-1-piperazinyl]propyloxy}-4,9-dihydro-4,9-dioxo-1H-naphtho[2,3-d]-v-triazole] |  |  |  |  |  |  |  |  |  |  |  |  |  |  | 
 |  | O=C1c2cccc(OCCCN3CCN(Cc4ccc(Cl)cc4)CC3)c2C(=O)c2nn[nH]c21 [Example 4, 5-{3-[4-(4-Chlorobenzyl)-1-piperazinyl]-propyloxy}-4,9-dihydro-4,9-dioxo-1H-naphtho-[2,3-d]-v-triazole] | 43 ± 2 % of mean of controls | 10 ± 1 % of mean of controls | 60 ± 11 % of mean of controls | 27 ± 4 % of mean of controls | 85 ± 9 % of mean of controls | 67 ± 8 % of mean of controls |  |  |  |  |  |  |  |  | 
 | 1 nM and 0.501 nM (2×) and 1.26 nM | O=C1c2cc(OCCCN3CCN(Cc4ccc(Cl)cc4)CC3)ccc2C(=O)c2[nH]nnc21 [Example 1, 6-{3-[4-(4-Chlorobenzyl)-1-piperazinyl]propyloxy}-4,9-dihydro-4,9-dioxo-1H-naphtho[2,3-d]-v-triazole] | 38 ± 3 % of mean of controls | 17 ± 3 % of mean of controls | 54 ± 6 % of mean of controls | 27 ± 5 % of mean of controls | 75 ± 7 % of mean of controls | 90 ± 16 % of mean of controls | 29 ± 2 % of mean of controls | 16 ± 2 % of mean of controls | 75 ± 13 % of mean of controls | 47 ± 6 % of mean of controls | 23 ± 3 % of mean of controls | 119 ± 25 % of mean of controls | 39 ± 8 % of mean of controls | 65 ± 18 % of mean of controls | 109 ± 18 % of mean of controls

Reference: patent publication US4378360A, “6-{3-[4-(Substituted benzyl)-1-piperazinyl]propyloxy}-4,9-dihydro-4,9-dioxo-1H-naphtho[2,3-d-]- v” (Beecham Group Limited, priority 1980, dated 1983)
